US20060094710A1, “Piperidine-pyridazones and phthalazones as pde4 inhibitors” (Altana Pharma AG, priority 2002, published 2006)

melting point [°C]	Compound
86 to 89	COc1ccc(C2=NN(C3CCN(CCOCCN)CC3)C(=O)[C@@H]3CC=CC[C@H]23)cc1OC.Cl.Cl
169 to 170	COc1ccc(C2=NN(C3CCN(C(=O)CS(C)(=O)=O)CC3)C(=O)[C@@H]3CC=CC[C@H]23)cc1OC [Compound 1, (4aS,8aR)-4-(3,4-Dimethoxy-phenyl)-2-[1(2-methanesulfonyl-ethanoyl)-piperidin-4-yl]-4a,5,8,8a-tetrahydro-2H-phthalazin-1-one]
188 to 189	COc1ccc(C2=NN(C3CCN(CC(=O)c4cc5ccccc5o4)CC3)C(=O)C3CC=CCC23)cc1OC (centres unmarked) [Compound 2]
147 to 149	COc1ccc(C2=NN(C3CCN(Cc4ccc(-n5cnc6ccccc65)cc4)CC3)C(=O)[C@@H]3CC=CC[C@H]23)cc1OC.Cl [Compound 3, (4aS,8aR)-2-[1-(4-Benzimidazol-1-yl-benzyl)-piperidin-4-yl]-4-(3,4-dimethoxy-phenyl)-4a,5,8,8a-tetrahydro-2H-phthalazin-1-one hydrochloride]
118 to 121	COc1ccc(C2=NN(C3CCN(C(=O)CCS(=O)(=O)CCNC(=O)N4CCOCC4)CC3)C(=O)C3CC=CCC23)cc1OC (centres unmarked) [Compound 5]
87 to 90	COCCN1CCC(N2N=C(c3ccc(OC)c(OC)c3)[C@H]3CC=CC[C@H]3C2=O)CC1.Cl [Compound 9, (4aS,8aR)-4-(3,4-Dimethoxy-phenyl)-2-[1-(2-methoxy-ethyl)-piperidin-4-yl]-4a,5,8,8a-tetrahydro-2H-phthalazin-1-one hydrochloride]
87 to 90	COc1ccc(C2=NN(C3CCN(CCS(C)(=O)=O)CC3)C(=O)[C@@H]3CC=CC[C@H]23)cc1OC.Cl [Compound 11, (4aS,8aR)-4-(3,4-Dimethoxy-phenyl)-2-[1-(2-methanesulfonyl-ethyl)-piperidin-4-yl]-4a,5,8,8a-tetrahydro-2H-phthalazin-1-one hydrochloride]

Compound	melting point [°C]
COc1ccc(C2=NN(C3CCN(C(=O)CCCOc4ccc5[nH]c(=O)ccc5c4)CC3)C(=O)CC2)cc1OC [Compound 15, 6-(4-{4-[3-(3,4-Dimethoxy-phenyl)-6-oxo-5,6-dihydro-4H-pyridazin-1-yl]-piperidin-1-yl}-4-oxo-butoxy)-1H-quinolin-2-one]	169 to 171
